Results taken from patent US12403107B2, “Lipid pharmaceutical preparation and application thereof” (HUZHOU INNOVATION PHARMACEUTICAL CO., LTD., priority 2019, dated 2025).
Read-outs that look alike come from different tables or passages of the source.

Assays:
[1] = Blood lidocaine concentration after 2-hour constant-rate intramuscular infusion, literature (Ikeda et al.); type: in vivo, Rats; settings: rat, dose 60 mg/kg, infusion t = 0-2 hours, calculated with elimination half-life = 2 hours, read-out: blood drug concentration of lidocaine
[2] = dose 60 mg/kg, infused into the muscle at a constant rate t = 0-2 hours, cited from earlier work

CCN(CC)CC(=O)Nc1c(C)cccc1C [preparation in the reference, lidocaine]
concentration at 6 h ([1]; time 6 hour): 400 ng/mL
concentration at 8 h ([1]; time 8 hour): 200 ng/mL
concentration at 12 h ([1]; time 12 hour): 100 ng/mL
concentration at 15 h ([1]; time 15 hour): 35.3 ng/mL
concentration at 18 h ([1]; time 18 hour): 6.25 ng/mL
concentration at 24 h ([1]; time 24 hour): 1.6 ng/mL
concentration at 30 h ([1]; time 30 hour): 0.2 ng/mL
concentration at 36 h ([1]; time 36 hour): 0 ng/mL
concentration at 42 h ([1]; time 42 hour): 0 ng/mL
concentration at 48 h ([1]; time 48 hour): 0 ng/mL
concentration at 54 h ([1]; time 54 hour): 0 ng/mL
concentration at 60 h ([1]; time 60 hour): 0 ng/mL
concentration at 66 h ([1]; time 66 hour): 0 ng/mL
concentration at 72 h ([1]; time 72 hour): 0 ng/mL
blood drug concentration of lidocaine ([2]; time 0 hour): 0 ng/mL
blood drug concentration of lidocaine ([2]; time 0.25 hour): 1900 ng/mL
blood drug concentration of lidocaine ([2]; time 0.5 hour): 5800 ng/mL
blood drug concentration of lidocaine ([2]; time 1 hour): 8200 ng/mL
blood drug concentration of lidocaine ([2]; time 2 hour): 10500 ng/mL
blood drug concentration of lidocaine ([2]; time 4 hour): 800 ng/mL
